How the values were obtained:
Assay type in all cases: binding
[1] = molecular target: T1, Cq-FABP (Cherax quadricarinatus, UniProt L0I6Z9); experiment: Time-resolved Trp fluorescence lifetime (single-photon counting) with ANS and PA; settings: for FRET efficiency: from lifetimes
Experimental: The distribution of fluorescence lifetimes of tryptophan was determined by monitoring the intensity decay, I(t), using the single-photon counting technique [27]–[31]. Briefly, the excitation light pulse source was a Ti:sapphire laser (Mai Tai femtosecond laser, Spectra Physics, Mountain View, CA, USA) associated with a third harmonic generator tuned to 296 nm. The laser frequency was reduced from 80 to 8 MHz using a pulse picker (Spectra Physics). Fluorescence emission was detected by a microchannel plate photomultiplier (Hamamatsu model R3809U-05) through a monochromator (ARC SpectraPro-150) set at 340 nm (Δλ = 15 nm) with the emission polarizer set at the magic angle (54.7°). A time-correlated single-photon counting SPC-430 card (Becker–Hickl, Berlin, Germany) was used for the acquisition. Experiments were performed at 25°C using 5 µM Cq-FABP in buffer C. The average fluorescence lifetime values (τm), as reported in Table 1, were calculated from the lifetime distributions recovered by the maximum entropy method, [29], [32]. For example, Cq-FABP alone was characterized by three fluorescence lifetimes (τ1 = 0.6 ns (6%), τ2 = 2.67 ns (53%), τ3 = 3.89 (41%); τm = 3.04 ns).

[2] = molecular target: T1, Cq-FABP; experiment: cis-Parinaric acid fluorescence intensity titration and competitive displacement; settings: calculated from the IC50 values (Eq. 2) using the fluorescence intensity of cis-parinaric acid; 7 µM CPA, 5 µM Cq-FABP; read-out: Kd,FA
Excerpt: Cis-parinaric acid and DAUDA were characterized by fluorescence emission in the 380–500 nm region (λmax,em: 410 nm) and in the 480–650 nm region (λmax,em: 540 nm), respectively (excitation wavelengths were set at 320 or 335 nm for cis-parinaric acid or DAUDA, respectively). The fluorescence intensity enhancement upon binding to Cq-FABP was monitored on a Cary-Eclipse spectrofluorimeter as indicated above. All the fluorescence emission intensities were corrected for the inner-filter effect. The emission intensity of a given fluorophore in the presence of Cq-FABP was also systematically corrected for the emission intensity of the free fluorophore. The calculation of Kd,FA was performed by measuring the IC50 value (inhibition concentration 50%) characterizing each non-fluorescent FA. As DAUDA poorly binds to Cq-FABP (see results section), only cis-parinaric acid (CPA) was used for measuring IC50 values. Titration and equilibrium displacement experiments using CPA were performed in buffer C (supplemented with 10% DMSO (v/v)). For the determination of IC50 values, the number of complexes corresponding to [CPA] = 7 µM and [Cq-FABP] = 5 µM was varied by increasing the concentration of non-fluorescent FA. The IC50 value corresponds to the concentration of non-fluorescent FA that displaces 50% of CPA from the fatty acid binding site of Cq-FABP and is related to Kd,FA through the Cheng-Prusoff relationship: [drawing 2] (2)

[3] = molecular target: T1, Cq-FABP; experiment: BODIPY-C16 steady-state fluorescence anisotropy titration and competition; settings: for Kd: read-out: Kd,FA
Experimental: The binding of 4,4-difluoro-5, 7-dimethyl-4-bora-3a, 4a-diaza-s-indacene-3-hexadecanoic acid (BODIPY-C16) to Cq-FABP was investigated by measuring the steady-state fluorescence anisotropy parameter using a Beacon instrument (PanVera, Madison, USA), in a cell thermostatically held at 25°C. The excitation and emission bandpass filters were centered at 488 nm (±6 nm) and 525 nm (±15 nm), respectively. Titration experiments were performed in buffer C (supplemented with 10% DMSO (v/v)) by maintening a constant concentration of BODIPY-C16 (200 nM) and by adding increasing concentrations of Cq-FABP. Using a vertical direction for the polarized excitation source, the steady-state fluorescence anisotropy (r) was calculated according to: [drawing 3] (3) where IV and IH correspond to the parallel (vertical) and perpendicular (horizontal) fluorescence emission intensity components, respectively. The fraction of BODIPY-C16/Cq-FABP complexes (i.e. the fraction of BODIPY-C16 bound to Cq-FABP), fb, was calculated using the following relationship: [drawing 4] (4) where r is the measured fluorescence anisotropy value, rf and rb correspond to the fluorescence anisotropy values of free BODIPY-C16 (ligand in the free state, measured in the absence of Cq-FABP) and Cq-FABP-bound BODIPY-C16 (ligand in the bound state, corresponding to the maximum anisotropy value found at the plateau), respectively. […] The Kd characterizing the BODIPY-C16/Cq-FABP complex (Kd,C16) was calculated by fitting the plot of fb versus [Cq-FABP] using the Graphpad Prism 5.0 software.
The fluorescence anisotropy-based assay was also used in competition experiments to calculate the Kd values (Kd,FA) characterizing non-fluorescent fatty acids. The measurement of the apparent Kd value characterizing the BODIPY-C16/Cq-FABP complex (Kd ^app ,C16) under different concentration conditions for the non-fluorescent FA allows the calculation of Kd,FA according to: [drawing 5] (5) where Kd,C16 corresponds to the Kd characterizing the BODIPY-C16/Cq-FABP complex (in the absence of any non-fluorescent FA) and Kd ^app ,C16 corresponds to the apparent dissociation constant obtained for a given concentration of non-fluorescent FA. The calculation of Kd,FA was also performed in an independent manner by measuring the IC50 value characterizing each non-fluorescent FA. In this approach, the number of complexes corresponding to [C16] = 200 nM and [Cq-FABP] = 5 µM was varied by increasing the concentration of non-fluorescent FA. The IC50 value corresponds to the concentration of non-fluorescent FA that displaces 50% of C16 from the fatty acid binding site of Cq-FABP and is related to Kd,FA through the Cheng-Prusoff relationship: [drawing 6] (6)

[4] = 5 µM Cq-FABP + 50 µM ANS + 70 µM PA
[5] = 5 µM Cq-FABP + 200 µM ANS + 70 µM PA

T1 sequence (L0I6Z9 entry or part of it): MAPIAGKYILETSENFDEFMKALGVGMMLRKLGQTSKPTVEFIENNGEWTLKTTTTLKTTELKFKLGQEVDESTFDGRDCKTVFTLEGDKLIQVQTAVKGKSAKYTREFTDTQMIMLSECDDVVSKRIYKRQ

In the case of `CCCCCCCCCCCCCCCC(=O)O` [PA, Palmitic acid], the “Average fluorescence Lifetime, τm” value [1, 4] is reported as 2.77 ns, the FRET efficiency [1, 4] is reported as 8.9% and the “Average fluorescence Lifetime, τm” value ([1]; 5 µM Cq-FABP + 70 µM PA) is reported as 2.96 ns. The “Average fluorescence Lifetime, τm” value [1, 5] was 2.34 ns, the FRET efficiency [1, 5] was 23% and the Kd [2] was 1.8 ± 0.4 µM. It also gave an IC50 ([3]; 200 nM BODIPY-C16, 5 µM Cq-FABP, read-out: IC50 (displaces 50% of BODIPY-C16 from the fatty acid binding site)) of 1.17 µM, a Kd ([3]; calculated from the IC50 values, using Eq. 6, 200 nM BODIPY-C16, 5 µM Cq-FABP) of 1.15 ± 0.2 µM and a Kd ([3]; calculated from the Kd app,C16 values, using Eq. 5, 200 nM BODIPY-C16) of 1.6 ± 0.3 µM.

From paper PMC3528769, “Comparative Study of the Fatty Acid Binding Process of a New FABP from Cherax quadricarinatus by Fluorescence Intensity, Lifetime and Anisotropy” (PLoS ONE, 2012)
